Experimental data taken from patent US20160068861A1, “METHOD FOR DETECTING PROTEIN STABILITY AND USES THEREOF” (priority 2013, published 2016).

Columns and labels:
CZ-1 cells = assay: MTT detection of cell viability, BTZ-sensitive cell line; format: cell-based, human
Method: (§1) CZ-1 cells can be obtained from Hou Jian Laboratory of Shanghai Changzheng Hospital (Hou J, Lin F Y, Zhang B, Zhang L Z, Ding S Q, Establishment and biological characteristics of human multiple myeloma cell line CZ-1. Chinese Medical Journal [2004, 117(1):115-119]); CZ-1/R cell lines was constructed by the inventor's Laboratories, and can be obtained from the inventor's laboratory (http://www.sibcb.ac.cn/PI.asp?id=129).
(§2) Plates were incubated for 24-72 hours. To each well was added 20 ul MTT (3-(4,5-dimethyl-2-thiazole)-2,5-diphenyl tetrazolium bromide) solution, culture was continued for another 4 hrs. To each well was added 150 ul of dimethyl sulfoxide, shaken on a shaker at low speed for 10 mins for thoroughly dissolving the crystals. Absorbance of each well was measured on an enzyme-linked immune detector at OD 490 nm (570 nm).

CZ-1/R cells = assay: MTT detection of cell viability, BTZ-resistant cell line; format: cell-based, human
Method: as §1, §2

[1] = BTZ in combination with 17-AAG, FIG. 9
[2] = BTZ in combination with C75, FIG. 9

Measured: killing effects (MTT)

CC(C)C[C@H](NC(=O)[C@H](Cc1ccccc1)NC(=O)c1cnccn1)B(O)O [BTZ, Bortezomib]
significant killing effects: CZ-1 cells; [1] | CZ-1 cells; [2] | CZ-1/R cells; [1] | CZ-1/R cells; [2]
